Assay results reported in patent US20060210611A1, “Fat soluble vitamin feed supplements and processes for delivering same” (priority 2003, published 2006).
Read-outs that look alike come from different tables or passages of the source.

How the values were obtained:
[1] = per 1 mg; cited from earlier work
[2] = cited from earlier work
[3] = Calculated average AT accretion rates in longissimus muscle (Arnold and McClure combined); assay type: in vivo, cattle
Description: Combining the results from Arnold and McClure, and bearing in mind that various muscles accrete AT at different rates (sirloin>inside round>RCDM>strip loin; Roeber et al., Effects of Three Levels of α-Tocopherol Acetate Supplementation to Feedlot Cattle on Performance of Beef Cuts (2001)), average accretion rates for AT in longissimus muscle can be calculated: […]

[4] = cited from earlier work; remark: listed apart in the source
[5] = Dietary vitamin E regimens and final longissimus muscle α-tocopherol (AT) concentration (Arnold); assay type: in vivo, cattle
Description: For example, Arnold compared several dietary vitamin E regimens and their resultant final tissue concentration of α-tocopherol (AT). Comparing the results to baseline control and assuming AT accretion in longissimus muscle is linear over time, approximate rates of AT accretion are calculated for various E regimens. Because AT rise is likely logarithmic (See e.g., Arnold et al., J. Anim. Sci. 71:105-118. (1993)), these calculated rates are conservative estimates, especially for feeding periods exceeding 150 days.

[6] = AT accretion in RCDM neck muscle at 1,000 IU vitamin E/hd/day (McClure); assay type: in vivo, Bos indicus crosses; conditions: 1000 IU/hd/day (McClure), 25-125 days fed
Description: McClure (FIG. 1) tested the rate of accretion in Bos indicus crosses when fed 1,000 IU of Vitamin E/hd/day. Groups of cattle were slaughtered at 25-day intervals, and neck muscles obtained for tissue AT analysis. Because the controls were already receiving 200 IU E/day, initial AT concentrations were above 3.5. However, RCDM (rectus capitis dorsalis major) AT concentration rose in a logarithmic fashion, eventually reaching a plateau of 9.3 μg/gm. (McClure et al., Determination of Appropriate Vitamin E Supplementation Levels and Administration Times to Ensure Adequate Muscle Tissue Alpha-Tocopherol Concentrations in Cattle Destined for the Nolan Ryan Tender-Aged Beef (NRTAAB) Program, Animal Sciences Report (2002)).

[7] = 360 IU/hd/day, 211-252 days fed
[8] = 1280 IU/hd/day, 211-252 days fed
[9] = 2080 IU/hd/day, 196-266 days fed
[10] = 3520 IU/hd/day, 196-266 days fed

Q: Which specific activity [1] does the source give for `CC(=O)Oc1c(C)c(C)c2c(c1C)CCC(C)(CCCC(C)CCCC(C)CCCC(C)C)O2` (racemic) [all-rac-α-tocopherol acetate] here?
A: 1.00 IU per milligram

Q: With `Cc1c(C)c2c(c(C)c1O)CCC(C)(CCCC(C)CCCC(C)CCCC(C)C)O2` (racemic) [all-rac-α-tocopherol] as the compound, how does the specific activity [1] read?
A: 1.10 IU per milligram

Q: For `CC(=O)Oc1c(C)c(C)c2c(c1C)CC[C@@](C)(CCC[C@H](C)CCC[C@H](C)CCCC(C)C)O2` [RRR-α-tocopherol acetate], which specific activity [1] is on record?
A: 1.36 IU per milligram

Q: Which specific activity [1] does the source give for `Cc1c(C)c2c(c(C)c1O)CC[C@@](C)(CCC[C@H](C)CCC[C@H](C)CCCC(C)C)O2` [RRR-α-tocopherol] here?
A: 1.49 IU per milligram

Q: Which “RCDM AT concentration plateau” value ([2]; 1,000 IU of Vitamin E/hd/day, slaughter at 25-day intervals) does the source give for Vitamin E here?
A: 9.3 μg/gm

Q: And the “Final AT concentration (in RCDM muscle)” value ([2]; 1000 IU/hd/day (McClure), 25-125 days fed)?
A: 9.3 μg/gm wet muscle

Q: What about the “initial AT concentrations” value ([2]; controls already receiving 200 IU E/day) of the same compound?
A: above 3.5

Q: And the “AT Accretion” value ([3]; Vitamin E dose 500 IU/hd/day)?
A: 0.75-1.0 μg AT/gm wet muscle/50 days

Q: What about the “AT Accretion” value ([3]; Vitamin E dose 1000+ IU/hd/day) of the same compound?
A: 1.5-3.6 μg AT/gm wet muscle/50 days

Q: What about the “AT Accretion” value ([3]; Vitamin E dose less than 500 IU/hd/day) of the same compound?
A: 0.5-0.6 μg AT/gm wet muscle/50 days

Q: What about the “Final Longissimus AT concentration” value ([4]; 300 IU/hd/day, 231-309 days fed) of the same compound?
A: 3.8 μg/gm wet muscle

Q: And the “Final Longissimus AT concentration” value [4, 7]?
A: 4.1 μg/gm wet muscle

Q: And the “Final Longissimus AT concentration” value ([4]; 1140 IU/hd/day, 67 days fed)?
A: 6.2 μg/gm wet muscle

Q: What about the “Final Longissimus AT concentration” value ([4]; 1200 IU/hd/day, 38 days fed) of the same compound?
A: 3.5 μg/gm wet muscle

Q: What about the “Final Longissimus AT concentration” value [4, 8] of the same compound?
A: 6.8 μg/gm wet muscle

Q: What about the “Final Longissimus AT concentration” value [4, 9] of the same compound?
A: 6.8 μg/gm wet muscle

Q: What about the “Final Longissimus AT concentration” value [4, 10] of the same compound?
A: 7.6 μg/gm wet muscle

Q: And the “Calculated Rise in AT per 50 days” value ([5]; 300 IU/hd/day, 231-309 days fed, vs control baseline, linear accretion assumed)?
A: 0.52 μg/gm/50 days

Q: And the “Calculated Rise in AT per 50 days” value [5, 7]?
A: 0.64 μg/gm/50 days

Q: And the “Calculated Rise in AT per 50 days” value ([5]; 1140 IU/hd/day, 67 days fed)?
A: 3.58 μg/gm/50 days

Q: And the “Calculated Rise in AT per 50 days” value ([5]; 1200 IU/hd/day, 38 days fed)?
A: 2.76 μg/gm/50 days

Q: What about the “Calculated Rise in AT per 50 days” value [5, 8] of the same compound?
A: 1.28 μg/gm/50 days

Q: What about the “Calculated Rise in AT per 50 days” value [5, 9] of the same compound?
A: 1.38 μg/gm/50 days

Q: What about the “Calculated Rise in AT per 50 days” value [5, 10] of the same compound?
A: 1.58 μg/gm/50 days

Q: And the “Calculated Rise in AT per 50 days” value [6]?
A: 2.6 μg/gm/50 days
